Data on 26 molecules can be found in ChEMBL document CHEMBL5325474, “Di-indenopyridines as topoisomerase II-selective anticancer agents: Design, synthesis, and structure-activity relationships” (Bioorg Med Chem, 2023).

Experiment [1] addresses DNA topoisomerase 2-alpha (Homo sapiens) (UniProt P11388). Kind of experiment: Inhibition of human DNA topoisomerase 2 alpha at 100 uM using supercoiled pBR322 DNA as substrate incubated for 30 mins by EtBr staining based agarose gel electrophoresis method relative to control.
Experiment [2] has the same target. Nature of the experiment: Inhibition of human DNA topoisomerase 2 alpha at 20 uM using supercoiled pBR322 DNA as substrate incubated for 30 mins by EtBr staining based agarose gel electrophoresis method relative to control.
In another experiment the test system is T47D. Kind of experiment: Antiproliferative activity against human T47D cells incubated for 72 hrs by microplate reader analysis. The class given is functional, cell-based.
In the next experiment the test system is HCT-15. Nature of the experiment: Antiproliferative activity against human HCT-15 cells incubated for 72 hrs by microplate reader analysis. The class given is functional, cell-based. The following applies: HCT-15, 72 h.
The subject of another experiment is DU-145. Kind of experiment: Antiproliferative activity against human DU-145 cells incubated for 72 hrs by microplate reader analysis. The class given is functional, cell-based. The note with it: DU-145, 72 h.
Another experiment has as its system HeLa. Kind of experiment: Antiproliferative activity against human HeLa cells incubated for 72 hrs by microplate reader analysis. The class given is functional, cell-based.
Experiment [3] addresses T1, DNA topoisomerase 1 (Homo sapiens) (UniProt P11387).
T1 sequence (whole entry): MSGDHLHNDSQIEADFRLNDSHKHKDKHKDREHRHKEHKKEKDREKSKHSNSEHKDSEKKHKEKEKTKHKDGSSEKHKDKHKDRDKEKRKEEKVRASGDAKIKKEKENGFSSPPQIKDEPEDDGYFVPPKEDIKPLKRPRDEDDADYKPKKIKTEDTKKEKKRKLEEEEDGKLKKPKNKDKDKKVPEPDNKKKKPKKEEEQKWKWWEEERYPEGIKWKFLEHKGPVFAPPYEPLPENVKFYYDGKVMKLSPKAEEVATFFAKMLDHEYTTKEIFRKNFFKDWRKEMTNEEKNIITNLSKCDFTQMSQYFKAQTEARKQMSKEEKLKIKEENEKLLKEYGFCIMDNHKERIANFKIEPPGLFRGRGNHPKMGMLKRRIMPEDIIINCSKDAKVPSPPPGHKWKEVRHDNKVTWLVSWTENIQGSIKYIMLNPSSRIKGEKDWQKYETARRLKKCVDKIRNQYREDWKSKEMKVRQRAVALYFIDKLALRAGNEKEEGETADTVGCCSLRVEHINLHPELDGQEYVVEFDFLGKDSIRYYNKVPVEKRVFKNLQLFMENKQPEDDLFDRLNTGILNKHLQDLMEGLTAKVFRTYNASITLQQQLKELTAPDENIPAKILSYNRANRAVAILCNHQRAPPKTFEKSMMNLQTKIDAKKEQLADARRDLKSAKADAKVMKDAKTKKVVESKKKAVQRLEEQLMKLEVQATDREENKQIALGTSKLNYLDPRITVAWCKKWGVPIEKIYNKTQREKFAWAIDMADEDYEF
Kind of experiment: Inhibition of human DNA topoisomerase 1 at 100 uM using supercoiled pBR322 DNA as substrate incubated for 30 mins by EtBr staining based agarose gel electrophoresis method relative to control.

A further experiment relates to Calf thymus DNA. Kind of experiment: Displacement of EtBr from calf thymus DNA assessed as reduction in fluorescence intensity at 5 to 40 uM preincubated with EtBr for 30 mins followed by compound addition and measured after 30 mins by microplate reader analysis. The experiment is classed as nucleic-acid assay. The note with it: Bos taurus, dose 5-40 µM.

The structures appear in SMILES notation. pIC50: −log10 of the molar value. Calls of active or inactive are those of the source. The rule behind the calls is not given here.

Chain of DNA topoisomerase 2-alpha (Homo sapiens) (P11388 whole entry): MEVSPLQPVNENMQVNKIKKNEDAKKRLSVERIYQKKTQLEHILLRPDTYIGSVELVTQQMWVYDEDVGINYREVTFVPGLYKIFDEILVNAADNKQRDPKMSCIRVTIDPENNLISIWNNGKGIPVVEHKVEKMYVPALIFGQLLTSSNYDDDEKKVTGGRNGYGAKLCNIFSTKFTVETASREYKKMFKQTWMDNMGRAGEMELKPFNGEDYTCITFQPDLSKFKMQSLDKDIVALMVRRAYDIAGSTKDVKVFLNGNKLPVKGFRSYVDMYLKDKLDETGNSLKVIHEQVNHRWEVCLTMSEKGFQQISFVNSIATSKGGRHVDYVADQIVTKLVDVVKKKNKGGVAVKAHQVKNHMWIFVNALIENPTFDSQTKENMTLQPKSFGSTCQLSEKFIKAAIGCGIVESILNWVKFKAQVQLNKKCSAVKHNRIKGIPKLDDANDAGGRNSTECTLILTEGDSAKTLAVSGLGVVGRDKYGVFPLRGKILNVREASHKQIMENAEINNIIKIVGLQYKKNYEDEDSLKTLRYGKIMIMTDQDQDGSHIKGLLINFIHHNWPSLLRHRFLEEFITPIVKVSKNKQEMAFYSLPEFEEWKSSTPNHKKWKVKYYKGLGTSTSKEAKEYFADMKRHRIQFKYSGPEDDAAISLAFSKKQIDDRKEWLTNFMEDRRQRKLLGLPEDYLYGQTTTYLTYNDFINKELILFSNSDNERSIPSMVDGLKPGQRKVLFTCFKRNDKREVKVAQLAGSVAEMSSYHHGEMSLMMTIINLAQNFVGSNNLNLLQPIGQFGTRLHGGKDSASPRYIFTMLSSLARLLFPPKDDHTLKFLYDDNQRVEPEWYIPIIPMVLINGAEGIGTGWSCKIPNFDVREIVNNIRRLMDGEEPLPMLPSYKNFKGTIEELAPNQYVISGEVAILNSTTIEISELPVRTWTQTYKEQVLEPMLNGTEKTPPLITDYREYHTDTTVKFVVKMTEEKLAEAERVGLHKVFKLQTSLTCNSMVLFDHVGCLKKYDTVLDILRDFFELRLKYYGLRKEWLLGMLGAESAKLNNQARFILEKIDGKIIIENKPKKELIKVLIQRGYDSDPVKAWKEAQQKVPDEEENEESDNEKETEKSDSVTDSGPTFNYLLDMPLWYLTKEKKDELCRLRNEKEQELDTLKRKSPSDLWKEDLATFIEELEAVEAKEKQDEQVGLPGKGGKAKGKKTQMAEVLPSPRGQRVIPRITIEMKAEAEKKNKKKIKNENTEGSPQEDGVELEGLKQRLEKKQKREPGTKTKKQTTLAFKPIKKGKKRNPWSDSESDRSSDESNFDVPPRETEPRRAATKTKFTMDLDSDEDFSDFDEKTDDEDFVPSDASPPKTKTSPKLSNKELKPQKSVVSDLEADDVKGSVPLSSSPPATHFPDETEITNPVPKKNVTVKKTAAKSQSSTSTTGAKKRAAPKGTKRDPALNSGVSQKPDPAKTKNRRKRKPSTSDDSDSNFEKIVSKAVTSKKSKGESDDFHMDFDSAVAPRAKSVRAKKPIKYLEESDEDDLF

Consider `Oc1cccc(-c2c3c(nc4c2Cc2cc(O)ccc2-4)-c2ccc(O)cc2C3)c1`, for which the inhibition – broadly, the change of the read-out against control, counted positive when it falls – in experiment [1] was determined as 56.8%; in experiment [2], 40.8%. Also, the pIC50 in the experiment on T47D, in the experiment with HCT-15, with DU-145 and in the experiment on HeLa was < 4.30 throughout.
With `Oc1ccc(-c2c3c(nc4c2Cc2cc(O)ccc2-4)-c2ccc(O)cc2C3)cc1`, the inhibition in experiment [1] amounted to 73.1%; in experiment [2] it was 55.7%. Moreover, the pIC50 (in general, the negative decadic logarithm of the IC50, by convention in mol/L) is 5.20 in the experiment with T47D, < 4.30 with HCT-15, < 4.30 in the experiment on DU-145 and < 4.30 in the experiment on HeLa.
Take `Oc1cccc(-c2c3c(nc4c2Cc2cccc(O)c2-4)-c2c(O)cccc2C3)c1`: the inhibition in experiment [1] was found to be 26%. In addition, the pIC50 with T47D was 5.16; in the experiment with HCT-15 it was 6.02; in the experiment on DU-145 it was 5.59; in the experiment with HeLa, 6.06.
As to `Oc1cccc(-c2c3c(nc4c2Cc2ccc(O)cc2-4)-c2cc(O)ccc2C3)c1`, the inhibition in experiment [1] is 22.5%. The pIC50 with T47D, in the experiment with HCT-15, with DU-145 and in the experiment with HeLa was < 4.30 throughout.
Turning to `Oc1cccc(-c2c3c(nc4c2Cc2c(O)cccc2-4)-c2cccc(O)c2C3)c1`, the results for the inhibition in experiment [3] and in experiment [1] were -0% and 21.2%, respectively. The negative-log IC50 (pIC50) in the experiment with T47D, in the experiment on HCT-15, in the experiment on DU-145 and with HeLa was < 4.30 each time.
As for `Oc1ccc2c(c1)Cc1c-2nc2c(c1-c1cccc(Cl)c1)Cc1cc(O)ccc1-2`, the inhibition in experiment [3] was -0%; in experiment [1] it was 91.4%; in experiment [2], 3.5%. Moreover, the pIC50 in the experiment on T47D, in the experiment with HCT-15, in the experiment with DU-145 and in the experiment on HeLa was < 4.30 in each case.
Regarding `Oc1ccc(-c2c3c(nc4c2Cc2ccc(C(F)(F)F)cc2-4)-c2cc(C(F)(F)F)ccc2C3)cc1`, the inhibition in experiment [3] amounted to 7.1%; in experiment [1], 51.4%; in experiment [2], 4.5%. For the same molecule, the pIC50 in the experiment with T47D was < 4.30; in the experiment on HCT-15, < 4.30; with DU-145, 5.59; with HeLa, < 4.30.
As to `Oc1cccc2c1-c1nc3c(c(-c4ccccc4OC(F)(F)F)c1C2)Cc1cccc(O)c1-3`, the inhibition in experiment [3] was -0%; in experiment [1], 84.8%; in experiment [2] it was 1.6%. Further, the pIC50 in the experiment with T47D is 7.30; in the experiment on HCT-15 it was 6.03; in the experiment on DU-145 it was 6.06; in the experiment on HeLa, 5.49.
As to `Oc1ccc2c(c1)-c1nc3c(c(-c4ccc(C(F)(F)F)cc4)c1C2)Cc1ccc(O)cc1-3`, the results for the inhibition in experiment [3] and in experiment [1] were -0% and 0.1%, respectively. The pIC50 with T47D is 5.24; in the experiment on HCT-15, 5.04; with DU-145, 5.23; with HeLa, 4.98.
On to `Oc1ccccc1-c1c2c(nc3c1Cc1cccc(O)c1-3)-c1c(O)cccc1C2`, for which, in experiment [1], the inhibition is -0%. Also, the pIC50 with T47D is 5.42; in the experiment with HCT-15, 5.32; in the experiment on DU-145, 5.74; with HeLa it was 5.81.
In the case of `COc1cccc2c1C(=O)c1c(O)c3c(c(O)c1C2=O)C[C@@](O)(C(=O)CO)C[C@@H]3O[C@H]1C[C@H](N)[C@H](O)[C@H](C)O1` [DOXORUBICIN], the pIC50 with T47D is 5.60; in the experiment with HCT-15, 5.45; with DU-145, 5.26; in the experiment with HeLa it was 5.77.
Consider `COc1cc(NS(C)(=O)=O)ccc1Nc1c2ccccc2nc2ccccc12`, for which, in the experiment with Calf thymus DNA, the result was Active.
In the case of `Oc1ccc(-c2c3c(nc4c2Cc2ccc(O)cc2-4)-c2cc(O)ccc2C3)cc1`, the inhibition in experiment [1] stood at 84.2%; in experiment [2], 78%. Further, the pIC50 in the experiment with T47D is 5.28; in the experiment with HCT-15, 4.56; in the experiment with DU-145, < 4.30; in the experiment with HeLa, 4.69.
On to `c1ccc(-c2c3c(nc4c2Cc2ccccc2-4)-c2ccccc2C3)cc1`, for which the inhibition in experiment [3] is -0%; in experiment [1], 2.6%. Further, the pIC50 in the experiment with T47D, in the experiment on HCT-15, in the experiment on DU-145 and with HeLa was < 4.30 throughout.
As for `Oc1ccc(-c2c3c(nc4c2Cc2cccc(O)c2-4)-c2c(O)cccc2C3)cc1`, the inhibition in experiment [1] is 43.6%; in experiment [2], 31.7%. For the same molecule, the negative-log IC50 (pIC50) was 5.36 in the experiment on T47D, 6.02 with HCT-15, 6.05 in the experiment with DU-145 and 5.53 with HeLa.
`CC[C@@]1(O)C(=O)OCc2c1cc1n(c2=O)Cc2cc3ccccc3nc2-1` [CAMPTOTHECIN] gave a pIC50 in the experiment on DU-145 of 6.21.
For `Oc1ccc2c(c1)-c1nc3c(c(-c4cccs4)c1C2)Cc1ccc(O)cc1-3`, the inhibition in experiment [3] worked out at 0.4%; in experiment [1], 59.5%; in experiment [2], 4.7%. Besides, the pIC50 with T47D is 6.77; in the experiment with HCT-15, 6.35; in the experiment with DU-145, 6.02; with HeLa, 6.03.
For `COc1cc([C@@H]2c3cc4c(cc3[C@@H](O[C@@H]3O[C@@H]5CO[C@@H](C)O[C@H]5[C@H](O)[C@H]3O)[C@H]3COC(=O)[C@H]23)OCO4)cc(OC)c1O` [ETOPOSIDE], the pIC50 is 6.01 in the experiment on T47D, 5.71 in the experiment on HCT-15, 5.01 with DU-145 and 5.47 in the experiment with HeLa.
Molecule `Oc1ccc(-c2c3c(nc4c2Cc2c(O)cccc2-4)-c2cccc(O)c2C3)cc1` gave an inhibition in experiment [1] of 13.9%. The pIC50 in the experiment on T47D is 5.48; in the experiment on HCT-15 it was 5.31; in the experiment with DU-145, 5.30; in the experiment on HeLa it was 6.03.
In the case of `Oc1ccc2c(c1)-c1nc3c(c(-c4ccccc4O)c1C2)Cc1ccc(O)cc1-3`, the results for the inhibition in experiment [1] and in experiment [2] were 90.3% and 65.9%, respectively. The pIC50 with T47D is 5.05; in the experiment with HCT-15 it was 5.41; in the experiment on DU-145 it was 5.10; in the experiment on HeLa it was 5.27.
For the molecule `Oc1ccc2c(c1)Cc1c-2nc2c(c1-c1cccc(F)c1)Cc1cc(O)ccc1-2`, the inhibition was -0% in experiment [3], 96.5% in experiment [1] and 3.2% in experiment [2]. Moreover, the pIC50 in the experiment on T47D, with HCT-15, in the experiment on DU-145 and with HeLa was < 4.30 throughout.
`Oc1ccccc1-c1c2c(nc3c1Cc1c(O)cccc1-3)-c1cccc(O)c1C2`: the values for the inhibition in experiment [1] and in experiment [2] were 77.1% and 41.8%, respectively. For the same molecule, the negative-log IC50 (pIC50) with T47D was 5.28; in the experiment on HCT-15, 5.06; in the experiment with DU-145, < 4.30; with HeLa, 5.68.
Consider `Oc1cccc2c1-c1nc3c(c(-c4ccsc4)c1C2)Cc1cccc(O)c1-3`, for which the inhibition in experiment [3] was -0%; in experiment [1], 13.4%. The pIC50 in the experiment on T47D, with HCT-15, with DU-145 and in the experiment on HeLa was < 4.30 throughout.
As to `Oc1ccc2c(c1)Cc1c-2nc2c(c1-c1ccccc1O)Cc1cc(O)ccc1-2`, the inhibition in experiment [1] stood at 93.3%; in experiment [2] it was 7.5%. Moreover, the pIC50 is < 4.30 in the experiment on T47D, 4.34 in the experiment on HCT-15, 4.50 with DU-145 and 4.65 with HeLa.
For the molecule `Oc1cccc2c1Cc1c-2nc2c(c1-c1ccccc1)Cc1c(O)cccc1-2`, the results for the inhibition in experiment [3], in experiment [1] and in experiment [2] were -0%, 100% and 1.6%, respectively. The negative logarithm of the IC50 (pIC50) in the experiment on T47D is 5.95; in the experiment with HCT-15, 5.82; with DU-145, 5.44; in the experiment on HeLa it was 6.23.
`Oc1ccc(-c2c3c(nc4c2Cc2c(F)cccc2-4)-c2cccc(F)c2C3)cc1`: the inhibition in experiment [3] is -0%; in experiment [1], 41.5%; in experiment [2], 2.5%. Moreover, the pIC50 with T47D, in the experiment on HCT-15, in the experiment on DU-145 and with HeLa was < 4.30 each time.
